For one series, the system named is PC-12. As to the kind of experiment: Induction of rat PC12 cells differentiation assessed as neurite outgrowth at 10 uM after 24 hrs relative to control. Format: functional.
Series [1] is described as follows: Antioxidant activity assessed as ferric ion reduction by measuring FeSO4 equivalents reducing Fe3+-TPTZ to Fe2+-TPTZ measured every 15 secs for 4 mins by FRAP assay. Format: functional.
The test system of series [2] is HT-22. As to the kind of experiment: Neurotoxicity against mouse HT22 cells assessed as decrease in cell viability at 25 uM measured after 24 hrs by MTT assay. As to conditions: ht-22, 24 h. The series is classed as toxicity, cell-based. Background: Formazan colour is commonly taken as a measure of viable cells.
For series [3], the target named is T1, Amyloid-beta precursor protein (Homo sapiens, UniProt P05067). The series can be described thus: Inhibition of amyloid beta 42 (unknown origin) expressed in Escherichia coli BL21 (DE3) aggregation at 10 uM incubated for overnight by Th-S fluorescence staining based UV-Vis spectrophotometer (reference value: 0 +/- 1%).
Series [4] has as its target T1, Amyloid-beta precursor protein. The series can be described thus: Inhibition of amyloid beta 42 (unknown origin) expressed in Escherichia coli BL21 (DE3) aggregation at 100 uM incubated for overnight by Th-S fluorescence staining based UV-Vis spectrophotometer (reference value: 0 +/- 4.4%).
Series [5] deals with T2, Microtubule-associated protein tau (Homo sapiens, UniProt P10636). As to the kind of experiment: Inhibition of tau (unknown origin) aggregation expressed in Escherichia coli (DE3) at 10 uM incubated for overnight by Th-S fluorescence staining based UV-Vis spectrophotometer (reference value: 0.0 +/- 1.4%).
In series [6] the target is T2, Microtubule-associated protein tau. The series can be described thus: Inhibition of tau (unknown origin) aggregation expressed in Escherichia coli (DE3) at 100 uM incubated for overnight by Th-S fluorescence staining based UV-Vis spectrophotometer (reference value: 0.0 +/- 2.4%).
The subject of series [7] is HT-22. The series can be described thus: Neuroprotective activity against IAA-induced ischemia in mouse HT22 cells assessed as increase in cell viability cotreated with IAA for 2 hrs followed by IAA wash out measured after 24 hrs by MTT assay. Format: functional, cell-based.
The test system of a further series is BV-2. As to the kind of experiment: Antiinflammatory activity in mouse BV2 cells assessed as inhibition of LPS-induced microglial activation after 24 hrs by Griess reagent based assay. Format: functional, cell-based. As to conditions: BV-2, 24 h. (In general: Nitrite, measured by Griess reagent, commonly stands in for NO production.)
Series [8] can be described thus: Antioxidant activity assessed as reduction of Fe3+-TPTZ to Fe2+-TPTZ using 1:1 test compound to ferulic acid ratio measured every 15 secs for 4 mins by FRAP assay. The series is classed as functional.
Series [9] relates to HT-22. The series can be described thus: Neurotoxicity against mouse HT22 cells assessed as decrease in cell viability at 25 uM using 1:1 test compound to cinnamic acid ratio measured after 24 hrs by MTT assay. The series is classed as toxicity, cell-based. To be noted: ht-22, 24 h.
The subject of series [10] is HT-22. The series can be described thus: Neurotoxicity against mouse HT22 cells assessed as decrease in cell viability at 25 uM using 1:1 test compound to ferulic acid ratio measured after 24 hrs by MTT assay. Format: toxicity, cell-based. To be noted: ht-22, 24 h.
In series [11] the test system is HT-22. The series can be described thus: Neuroprotective activity against glutamate-induced mouse HT22 cells assessed as increase in cell survival at 1 to 25 uM cotreated with glutamate measured after 24 hrs by MTT assay. The series is classed as functional, cell-based.
For series [12], the system named is HT-22. As to the kind of experiment: Neuroprotective activity against glutamate-induced mouse HT22 cells assessed as increase in cell survival at 1 to 25 uM using 1:1 test compound to ferulic acid ratio cotreated with glutamate measured after 24 hrs by MTT assay. The series is classed as functional, cell-based.
A short description of series [13]: Antioxidant activity assessed as reduction of Fe3+-TPTZ to Fe2+-TPTZ using equimolar mixture of test compound and cinnamic acid measured every 15 secs for 4 mins by FRAP assay. The series is classed as functional.

pEC50: −log10 of the molar value. Active and inactive are the calls of the source. The calls are words filed in the database; no cut-off is given here.

T1 sequence (P05067 whole entry): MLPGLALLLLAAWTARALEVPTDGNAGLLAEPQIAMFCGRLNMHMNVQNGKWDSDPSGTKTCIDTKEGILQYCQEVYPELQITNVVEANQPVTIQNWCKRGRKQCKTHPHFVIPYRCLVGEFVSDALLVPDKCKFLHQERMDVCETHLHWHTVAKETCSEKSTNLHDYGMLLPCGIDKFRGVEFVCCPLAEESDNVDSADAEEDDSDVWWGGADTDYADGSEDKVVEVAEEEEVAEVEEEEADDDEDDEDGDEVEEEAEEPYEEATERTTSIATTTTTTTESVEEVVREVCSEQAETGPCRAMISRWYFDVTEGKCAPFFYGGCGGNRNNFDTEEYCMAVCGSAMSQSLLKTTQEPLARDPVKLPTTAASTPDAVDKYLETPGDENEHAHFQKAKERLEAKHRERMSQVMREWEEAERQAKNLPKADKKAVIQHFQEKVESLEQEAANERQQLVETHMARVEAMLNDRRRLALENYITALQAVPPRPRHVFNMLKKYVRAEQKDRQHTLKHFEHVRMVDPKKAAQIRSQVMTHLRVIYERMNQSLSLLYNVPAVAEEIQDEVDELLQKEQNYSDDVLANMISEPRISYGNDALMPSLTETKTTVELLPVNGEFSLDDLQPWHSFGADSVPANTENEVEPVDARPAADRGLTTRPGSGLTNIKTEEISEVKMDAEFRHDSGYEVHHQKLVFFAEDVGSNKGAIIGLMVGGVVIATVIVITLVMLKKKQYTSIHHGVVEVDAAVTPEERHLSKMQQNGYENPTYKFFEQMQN
T2 sequence (P10636 whole entry): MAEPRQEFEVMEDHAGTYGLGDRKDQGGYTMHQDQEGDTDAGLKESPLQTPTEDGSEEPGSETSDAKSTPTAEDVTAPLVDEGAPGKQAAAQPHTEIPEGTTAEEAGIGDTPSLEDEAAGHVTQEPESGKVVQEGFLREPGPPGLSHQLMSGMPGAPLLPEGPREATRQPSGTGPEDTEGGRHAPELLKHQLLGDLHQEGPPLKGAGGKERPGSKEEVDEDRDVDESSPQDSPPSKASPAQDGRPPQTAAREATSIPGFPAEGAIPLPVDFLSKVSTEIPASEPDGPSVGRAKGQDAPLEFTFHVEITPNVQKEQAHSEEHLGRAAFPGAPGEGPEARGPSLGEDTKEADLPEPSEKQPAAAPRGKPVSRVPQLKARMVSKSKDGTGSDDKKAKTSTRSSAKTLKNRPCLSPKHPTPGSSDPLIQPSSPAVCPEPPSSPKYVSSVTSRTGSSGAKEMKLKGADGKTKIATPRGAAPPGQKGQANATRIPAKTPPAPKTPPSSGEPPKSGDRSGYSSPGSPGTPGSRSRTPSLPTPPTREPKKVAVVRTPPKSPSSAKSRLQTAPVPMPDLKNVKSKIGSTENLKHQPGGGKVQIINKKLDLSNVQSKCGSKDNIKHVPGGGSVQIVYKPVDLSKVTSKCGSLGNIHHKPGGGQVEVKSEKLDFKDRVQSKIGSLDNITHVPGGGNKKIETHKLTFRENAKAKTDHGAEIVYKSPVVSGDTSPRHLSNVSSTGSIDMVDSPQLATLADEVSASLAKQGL

Usually inhibition stands for the relative decrease from the control value, in per cent. What is called pEC50 is −log10 of the EC50, conventionally taken in molar units. As for `COc1cc(C2Oc3cc([C@H]4Oc5cc(O)cc(O)c5C(=O)[C@@H]4O)ccc3OC2CO)ccc1O` (stereo not given in full) [SILIBININ], the Activity is 38% with PC-12; 0.6 equiv in [1]; “Non-Toxic” in the series with HT-22 [2]; “Toxic” in the series on HT-22 [9]; “Toxic” with HT-22 [10]. Also, the inhibition in series [3] worked out at 4.8%; in [4] it was 16%; in [5], 2%; in series [6], 10.1%. In addition, the pEC50 in the series with HT-22 [7] and with BV-2 was less than 5.00 throughout. Further, the outcome in [8] and in [13] was Active. In addition, the result with HT-22 [11] and with HT-22 [12] was inactive.
